Test results: US20070037782A1, “Therapeutic agent for ageing macular degeneration” (MEIJI DAIRIES CORPORATION, priority 2003, published 2007)

Tested on: rat model of laser-induced choroidal neovascularization
Experiment: Inhibitory effect on choroidal neovascularization (CNV) after subconjunctival administration, rat model of laser-induced CNV
Type: in vivo, Rats (Brown Norway)
Settings: for incidence of CNV relative to that of the base group: single subconjunctival administration, 14 days after photocoagulation, mean±S.E., P<0.01 vs base group
Description: An inhibitory effect on choroidal neovascularization caused by the subconjunctival administration of FMPA was assessed using a rat model of laser-induced choroidal neovascularization (which may hereinafter be abbreviated as CNV).
Rats (Brown Norway, 8 week old, male) were given general anesthesia and their pupils were dilated with one drop of commercially available eye-drops (“Mydrin P”, trade name; product of Santen Pharmaceutical Co. Ltd.) They were then subjected to photocoagulation by a krypton laser photocoagulation apparatus (“MC-7000L”, manufactured by NIDEK Co., Ltd.). The photocoagulation was performed sporadically at 8 sites while focusing on the deep layer of the retina and avoiding laser irradiation to thick retinal blood vessels (coagulation conditions: spot size of 100μm, output of 100 mW and coagulation time for 0.1 second). This photocoagulation was given to both eyes. After photocoagulation, the sites exposed to laser were confirmed by fundus photography. These rats were bred for 14 days, whereby CNV rat models were produced. […]
Fourteen days after photocoagulation, 0.1 mL of 10 wt.% fluorescein was injected through the caudal vein and based on the photograph taken by a fluorescein fundus camera (“Pro III”, product of Kowa Company Ltd), presence or absence of CNV was observed. […] A ratio of the number of positive sites to the number of all the exposed sites (8 sites) of eyeballs was calculated and the incidence of CNV of each administration group was calculated when the CNV incidence of the base group (Group 1) was assumed to be 1.00. […]
The incidence of CNV was expressed as a mean value±S.E. Comparison between the base group (Group 1) and each FMPA group (Groups 2 and 3) was made using analysis of variance, followed by Dunnett multiple comparison tests, while comparison between the base group and Comparative medicament group (Group 4) or comparison between the FMPA group (Group 2) and Comparative medicament group was made using t-test. […]

SMILES: CC(=O)O[C@]1(C(C)=O)CC[C@H]2[C@@H]3C[C@H](C)C4=CC(=O)CC[C@]4(C)[C@@]3(F)CC[C@@]21C [FMPA, 9α-fluoromedroxyprogesterone acetate]
- incidence of CNV relative to that of the base group (1000 μg/eye): 62.2±6.7%
- incidence of CNV relative to that of the base group (3000 μg/eye): 48.9±6.5%
- CNV inhibitory effect (in words) (1000 and 3000 μg/eye, subconjunctival, rat): dose-dependent CNV inhibitory effect
